{"source": "ChEMBL document CHEMBL1136538", "about": "“1,4-Dihydroxy-2,3-dioxatricyclo[8.4.0.0(4,9)]tetradecane and derivatives with in vitro activity against Plasmodium falciparum, Trypanasoma b brucei, Trypanasoma cruzi, and Leishmaniasis infantum” (Bioorg Med Chem Lett, 2003)", "key": {"[1]": {"tested_on": "Trypanosoma brucei", "assay": "In vitro anti-protozoal parasite activity against Trypanosoma brucei TB-1", "assay_type": "functional, organism-based"}, "[2]": {"tested_on": "Leishmania infantum", "assay": "In vitro anti-protozoal parasite activity against Leishmania infantum L1 strain", "assay_type": "functional, organism-based"}, "[3]": {"tested_on": "MRC5", "assay": "In vitro cytotoxicity against cell line MRC-5", "assay_type": "functional, cell-based", "settings": "Homo sapiens"}, "[4]": {"tested_on": "Plasmodium falciparum", "assay": "In vitro anti-protozoal activity against Plasmodium falciparum Ghana", "assay_type": "functional, organism-based"}, "[5]": {"tested_on": "Trypanosoma cruzi", "assay": "In vitro anti-protozoal parasite activity against Trypanosoma cruzi TC-1", "assay_type": "functional, organism-based"}}, "data": [{"smiles": "Cc1ccc(C(=O)Nc2ccc(S(=O)(=O)O)c3cc(S(=O)(=O)O)cc(S(=O)(=O)O)c23)cc1NC(=O)c1cccc(NC(=O)Nc2cccc(C(=O)Nc3cc(C(=O)Nc4ccc(S(=O)(=O)O)c5cc(S(=O)(=O)O)cc(S(=O)(=O)O)c45)ccc3C)c2)c1", "note": "[SURAMIN HEXASODIUM]", "values": [{"measurement": "IC50", "setting": "[1]", "value": 0.043, "unit": "µM"}]}, {"smiles": "COC12CCCCC1C1CCCCC1(O)OO2", "note": "(stereo unspecified)", "values": [{"measurement": "IC50", "setting": "[2]", "value": "> 32", "unit": "µM"}, {"measurement": "IC50", "setting": "[3]", "value": 8, "unit": "µM"}, {"measurement": "IC50", "setting": "[4]", "value": 5, "unit": "µM"}, {"measurement": "IC50", "setting": "[1]", "value": 16, "unit": "µM"}, {"measurement": "IC50", "setting": "[5]", "value": 8, "unit": "µM"}]}, {"smiles": "OC12CCCCC1C1CCCCC1(O)OO2", "note": "(stereo unspecified)", "values": [{"measurement": "IC50", "setting": "[2]", "value": "> 32", "unit": "µM"}, {"measurement": "IC50", "setting": "[3]", "value": 10, "unit": "µM"}, {"measurement": "IC50", "setting": "[4]", "value": 0.1, "unit": "µM"}, {"measurement": "IC50", "setting": "[1]", "value": 13, "unit": "µM"}, {"measurement": "IC50", "setting": "[5]", "value": 24, "unit": "µM"}]}, {"smiles": "CC1CCCC2C3CCCC(C)C3(O)OOC12O", "note": "(stereo unspecified)", "values": [{"measurement": "IC50", "setting": "[2]", "value": "> 32", "unit": "µM"}, {"measurement": "IC50", "setting": "[3]", "value": "> 32", "unit": "µM"}, {"measurement": "IC50", "setting": "[4]", "value": "> 32", "unit": "µM"}, {"measurement": "IC50", "setting": "[5]", "value": "> 32", "unit": "µM"}]}, {"smiles": "CO[C@H]1O[C@@H]2O[C@@]3(C)CC[C@H]4[C@H](C)CC[C@@H]([C@H]1C)[C@@]24OO3", "note": "[ARTEMETHER]", "values": [{"measurement": "IC50", "setting": "[4]", "value": 0.025, "unit": "µM"}]}, {"smiles": "O=C(O)CCCCC(=O)OC12CCCCC1C1CCCCC1(O)OO2", "note": "(stereo unspecified)", "values": [{"measurement": "IC50", "setting": "[2]", "value": "> 32", "unit": "µM"}, {"measurement": "IC50", "setting": "[3]", "value": "> 32", "unit": "µM"}, {"measurement": "IC50", "setting": "[4]", "value": "> 32", "unit": "µM"}, {"measurement": "IC50", "setting": "[1]", "value": 17, "unit": "µM"}, {"measurement": "IC50", "setting": "[5]", "value": 19, "unit": "µM"}]}, {"smiles": "O=C(O)CC(=O)OC12CCCCC1C1CCCCC1(O)OO2", "note": "(stereo unspecified)", "values": [{"measurement": "IC50", "setting": "[2]", "value": "> 32", "unit": "µM"}, {"measurement": "IC50", "setting": "[3]", "value": "> 32", "unit": "µM"}, {"measurement": "IC50", "setting": "[4]", "value": 6, "unit": "µM"}, {"measurement": "IC50", "setting": "[1]", "value": 10, "unit": "µM"}, {"measurement": "IC50", "setting": "[5]", "value": "> 32", "unit": "µM"}]}, {"smiles": "O=C(O)CCC(=O)OC12CCCCC1C1CCCCC1(O)OO2", "note": "(stereo unspecified)", "values": [{"measurement": "IC50", "setting": "[2]", "value": "> 32", "unit": "µM"}, {"measurement": "IC50", "setting": "[3]", "value": 13, "unit": "µM"}, {"measurement": "IC50", "setting": "[4]", "value": 1, "unit": "µM"}, {"measurement": "IC50", "setting": "[1]", "value": 4, "unit": "µM"}, {"measurement": "IC50", "setting": "[5]", "value": 13, "unit": "µM"}]}, {"smiles": "O=C(O)CCCC(=O)OC12CCCCC1C1CCCCC1(O)OO2", "note": "(stereo unspecified)", "values": [{"measurement": "IC50", "setting": "[2]", "value": "> 32", "unit": "µM"}, {"measurement": "IC50", "setting": "[3]", "value": "> 32", "unit": "µM"}, {"measurement": "IC50", "setting": "[4]", "value": 19, "unit": "µM"}, {"measurement": "IC50", "setting": "[1]", "value": 16, "unit": "µM"}, {"measurement": "IC50", "setting": "[5]", "value": 15, "unit": "µM"}]}]}
